Experimental data reported in patent US8455435B2, “Remedies for ischemia” (Ludwig-Maximilians-Universitat Munchen, priority 2006, dated 2013).

Columns and labels:
[1] = tested on: CD45+/CD34+ and CD45+/CD34- cell populations in peripheral blood; assay: Flow cytometry of peripheral blood mononuclear cells after PTH or G-CSF in healthy mice; assay type: in vivo, C57BL/6 mice
Method: For the experiments healthy age- and sex-matched (male, 8-12 weeks of age) C57BL/6 mice (Charles River) were used. Animal care and all experimental procedures were performed in strict accordance to the German and National Institutes of Health animal legislation guidelines and were approved by the local animal care and use committees.
(§1) Mice were divided into the following groups: 1) administration of saline daily for 6 days, sacrificed at day 7 (n=6). 2) administration of PTH (Bachem) daily for 6 consecutive days (80 μg per kg body weight per day, intraperitoneally), sacrificed at day 7 (n=6). 3) administration of PTH daily for 14 consecutive days, sacrificed at day 15 (n=6). 4) administration of G-CSF (Amgen Biologicals) daily for 5 consecutive days (200 μg per kg body weight per day, intraperitoneally), sacrificed at day 6 (n=6).
at day 6, 1 ml of peripheral blood was harvested from each mouse by aspirating the carotid artery. Bone marrow cells were obtained by flushing the tibias and femurs from the euthanized mice. Mononuclear cells were separated by density-gradient centrifugation using 1.077 g/mL Histopaque solution (Sigma Chemicals), purified and resuspended in phosphate-buffered saline (PBS) containing 1% bovine serum albumin. Cells were incubated for 40 minutes in the dark at 4° C. with following fluorescein-isothiocyanate (FITC), phycoerythrin (PE), and peridinin-chlorphyll-protein (PerCP) conjugated monoclonal antibodies: CD45-PerCP, C34-FITC, CD31-PE, Sca-1-PE and c-kit-PE (all from BD Pharmingen). Isotype-identical antibodies (BD Pharmingen) served as controls. Cells were analyzed by 3-color flow cytometry using a Coulter® Epics® XL-MCL™ flow cytometer (Beckman Coulter). Each analysis included 20000 events. The absolute number of antigen-positive cells per ml of whole blood was calculated by multiplying the percentage of antigen-positive cells with the total number of mononuclear cells per ml of blood detected by the conventional hematological cell analyzer. The number of lymphocytes together with the number of monocytes comprised the total number of mononuclear cells.

CD31 positive vessels = assay: Neovascularization (CD31 positive vessels) in granulation tissue after MI, PTH treatment; assay type: in vivo, mice; conditions: infarct and borderzone after PTH treatment
Description: C) Representative staining of CD31 positive vessels (left: 100×, right: 400×) in the granulation tissue harboring the borderzone of PTH treated (upper row) and saline treated animals (lower row). […] All sections nuclei (blue) were counterstained with hematoxyline. *p<0.05 saline vs. PTH.

[2] = tested on: CD45 positive stem cells in peripheral blood; assay: Mobilization of bone marrow derived cells by PTH(1-34), flow cytometry of peripheral blood; assay type: in vivo, C57BL/6 mice
Method: 8-12 week old C57BL/6 mice (n=5) were either treated with PTH (80 μg/kg/d) or saline daily for 5 or 14 consecutive days. At day 6 and day 14, 1 ml of peripheral blood was harvested from each mouse by aspirating the carotid artery. To define the number of leukocytes, heparinized blood samples were analyzed using a conventional hematological cell analyzer (Sysmex XE 2100). Mononuclear cells were separated by density-gradient centrifugation using Histopaque solution (1.077 g/ml, Sigma Chemicals), purified and resuspended in phosphate-buffered saline (PBS) containing 1% bovine serum albumin. Cells were incubated for 40 minutes in the dark at 4° C. with the following fluorescein-isothiocyanate (FITC), phycoerythrin (PE), and peridinin-chlorophyll-protein (PerCP) conjugated monoclonal antibodies: CD45− PerCP, CD34-FITC, CD31-PE, Sca-1-PE and c-kit-PE (all from BD Pharmingen). Matching isotype antibodies (BD Pharmingen) served as controls. Cells were analyzed by 3-color flow cytometry using a Coulter® Epics® XL-MCL™ flow cytometer (Beckman Coulter). Each analysis included 20000 events.

G-CSF = G-CSF serum level by ELISA after PTH; assay type: in vivo, C57BL/6 mice
Method: as §1
G-CSF and SCF serum levels were determined by ELISA (Mouse G-CSF and Mouse SCF, RayBiotech).

myocardial infarction = assay: Survival after myocardial infarction (LAD occlusion), PTH treatment; assay type: in vivo, C57BL/6 mice; conditions: 4 weeks after myocardial infarction, PTH 80 μg/kg/d s.c.
Method: Myocardial infarction was induced in male C57BL/6 mice 8-12 weeks of age by surgical occlusion of the left anterior descending artery (LAD) through a left anterolateral approach. Mice were anesthetized by intraperitoneal injection of a mixture of 100 mg/kg ketamine (Sigma Chemical Co., St. Louis, Mo.) and 5 mg/kg Xylazine (Sigma), intubated and artificially ventilated by a mouse ventilator (HUGO SACHS, March, Germany) with 200 strokes/min and 200 μl/stroke. Animal care and all experimental procedures were performed in strict accordance to the German and National Institutes of Health animal legislation guidelines and were approved by the local animal care and use committees.
After occlusion of the LAD, mice were divided into the following groups 1) subcutaneous administration of saline daily for 5 days, sacrificed at day 6 (n=10) and day 30 (n=15); 2) administration of rat PTH (1-34) daily for 5 and 14 consecutive days (80 μg/kg/d s.c., Bachem), sacrificed at day 6 (n=9) and day 30 (n=15); 3) sham operated animals sacrificed at day 30 (n=5), and not operated control animals receiving saline (n=6) sacrificed at day 6 and at day 30. All animals received BrdU (50 μg/kg/d) for 5 consecutive days. […]
Results were expressed as mean±S.E.M. For statistical analyses the unpaired Student's t-test was used. Mortality was analyzed by the Kaplan-Meier-method. […]

rat PTH (1-34)
increase of subpopulations of CD45+/CD34+ and CD45+/CD34- cells ([1]; PTH 80 μg/kg/d for 6 or 14 days, peripheral blood): 1.5- to 9.8 fold
mobilization of CD45+/CD34+ cells by PTH compared to G-CSF treatment ([1]; PTH 80 μg/kg/d vs G-CSF 200 μg/kg/d 5 days): 20-50%
subtypes of CD45+/CD34+ and CD45+/CD34- cells in peripheral blood ([1]; PTH day 6 and day 14, G-CSF day 6): significant increase
mobilization of stem cells which express c-kit ([1]; in comparison to a control): 5 fold
number of mobilized subtypes of CD45+/CD34+ cells, PTH compared with G-CSF ([1]; peripheral blood): significant lower number
mobilized CD45+/CD34-/c-kit+ cells, PTH compared with G-CSF ([1]; peripheral blood, p<0.05): 49-50%
angiogenesis (CD31 positive vessels): significantly increased
increase of CD45+/CD34+ cells ([2]; day 6): 4.4 fold
increase of CD45+/CD34+/CD31+ cells ([2]; day 6): 2.9 fold
increase of CD45+/CD34+/Sca-1+ cells ([2]; day 6): 2.9 fold
increase of CD45+/CD34+/c-kit+ cells ([2]; day 6): 6.1 fold
increase of CD45+/CD34+ cells ([2]; day 14): 6.0 fold
increase of CD45+/CD34+/CD31+ cells ([2]; day 14): 3.1 fold
increase of CD45+/CD34+/Sca-1+ cells ([2]; day 14): 2.9 fold
increase of CD45+/CD34+/c-kit+ cells ([2]; day 14): 9.0 fold
increase of G-CSF serum value (G-CSF; PTH treated mice, ELISA): 2.8 fold
serum level of G-CSF (G-CSF; day 6 of PTH stimulation): 6035.5 ± 1318.4 pg/mL
survival rate (myocardial infarction): 60%
survival rate (myocardial infarction; listed as rPTH (1-34)): 60.0%
